Like-named read-outs stand apart in the source and are kept apart here.
Columns and labels:
[1] = target: Full length WRN protein (aa 2-1432) (Homo sapiens (Human), UniProt Q14191); experiment: WRN ATPase ADP-Glo biochemical assay, Assay Format B (100 μM ATP); settings: 0.25 nM WRN, 100 nM C6.18 ssDNA, 60 min preincubation
[2] = tested on: HCT116 cells; experiment: HCT116 (MSI) 7 day viability, CellTiter Glo; assay type: cell-based; settings: Homo sapiens, HCT-116, 168 h, 7 days, read-out: HCT116 (MSI) Viability 7 Day Abs AC50
Procedure, shortened: (§1)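 HCT116 seeded at 50 cells/well and HT29 at 500 cells/well onto compound plates (10-point 3-fold dilutions from 10 mM DMSO stock), incubated 7 days at 37 °C, 5% CO2.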

[3] = tested on: HT29 cells; experiment: HT29 (MSS) 7 day viability, CellTiter Glo; assay type: cell-based; settings: Homo sapiens, HT-29, 168 h, 7 days, read-out: HT29 (MSS) Viability 7 Day CTGAbs AC50
Procedure, shortened: as §1

[4] = read-out: ATPase ADPGlo AC50 (uM)- Assay Format B

Full length WRN protein (aa 2-1432), sequence (Q14191 2-1432): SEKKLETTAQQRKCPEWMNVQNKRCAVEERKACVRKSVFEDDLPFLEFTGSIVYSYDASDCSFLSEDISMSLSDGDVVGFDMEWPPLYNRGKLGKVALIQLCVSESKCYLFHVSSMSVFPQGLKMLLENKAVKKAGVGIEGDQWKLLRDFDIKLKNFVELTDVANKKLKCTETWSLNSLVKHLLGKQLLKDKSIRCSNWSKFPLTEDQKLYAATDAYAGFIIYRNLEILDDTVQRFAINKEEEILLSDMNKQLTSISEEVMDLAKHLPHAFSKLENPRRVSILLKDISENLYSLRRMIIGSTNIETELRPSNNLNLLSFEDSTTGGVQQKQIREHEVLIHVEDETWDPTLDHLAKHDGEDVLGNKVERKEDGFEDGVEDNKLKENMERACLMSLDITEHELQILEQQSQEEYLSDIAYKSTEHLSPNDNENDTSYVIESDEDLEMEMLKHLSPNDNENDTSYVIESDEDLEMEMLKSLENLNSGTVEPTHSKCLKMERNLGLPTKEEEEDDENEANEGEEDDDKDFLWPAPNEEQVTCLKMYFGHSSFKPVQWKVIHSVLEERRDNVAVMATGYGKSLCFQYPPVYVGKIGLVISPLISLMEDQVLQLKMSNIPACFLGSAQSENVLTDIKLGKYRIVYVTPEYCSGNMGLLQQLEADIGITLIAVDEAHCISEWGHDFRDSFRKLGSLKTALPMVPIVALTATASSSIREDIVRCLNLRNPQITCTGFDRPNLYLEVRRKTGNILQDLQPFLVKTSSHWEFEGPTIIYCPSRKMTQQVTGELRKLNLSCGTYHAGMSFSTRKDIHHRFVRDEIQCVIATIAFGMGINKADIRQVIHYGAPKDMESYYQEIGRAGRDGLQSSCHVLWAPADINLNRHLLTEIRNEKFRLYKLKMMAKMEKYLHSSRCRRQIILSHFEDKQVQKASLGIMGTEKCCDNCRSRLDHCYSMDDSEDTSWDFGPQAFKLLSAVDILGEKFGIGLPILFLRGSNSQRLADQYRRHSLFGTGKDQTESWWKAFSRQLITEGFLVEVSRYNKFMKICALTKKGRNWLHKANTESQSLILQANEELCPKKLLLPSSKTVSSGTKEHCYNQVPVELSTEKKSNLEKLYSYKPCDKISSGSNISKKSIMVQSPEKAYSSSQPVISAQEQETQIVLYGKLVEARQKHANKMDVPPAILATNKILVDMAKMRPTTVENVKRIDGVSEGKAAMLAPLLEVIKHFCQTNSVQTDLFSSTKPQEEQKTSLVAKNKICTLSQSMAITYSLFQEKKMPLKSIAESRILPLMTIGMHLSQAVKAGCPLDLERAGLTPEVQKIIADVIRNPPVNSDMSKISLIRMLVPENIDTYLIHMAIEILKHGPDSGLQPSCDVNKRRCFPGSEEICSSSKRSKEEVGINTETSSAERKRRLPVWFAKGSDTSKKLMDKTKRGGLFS

`C=CC(=O)N1CC(OC2(COC)CC2)c2nn(-c3ccc(C4CC4)cc3)c3c2C(C1)N(C(=O)c1ccc(C(F)(F)F)nc1)CC3` (stereo not drawn) [Compound 235, 1-(2-(4-cyclopropylphenyl)-9-(1-(methoxymethyl)cyclopropoxy)-5-(6-(trifluoromethyl)nicotinoyl)-2,3,4,5,5a,6,8,9-octahydro-7H-1,2,5,7-tetraazabenzo[cd]azulen-7-yl)prop-2-en-1-one] was tested, and the AC50 [1, 4] was over 0.055 µM, the AC50 [2] was 0.1 to 0.25 µM and the AC50 [3] was over 3 µM.

For `C=CC(=O)N1CCc2nn(-c3ccc(C4CCC4)cc3)c3c2C(C1)N(C(=O)c1ccc2c(Cl)ncn2c1)CC3` (stereo not drawn) [Compound 236, 1-(5-(1-chloroimidazo[1,5-a]pyridine-6-carbonyl)-2-(4-cyclobutylphenyl)-2,3,4,5,5a,6,8,9-octahydro-7H-1,2,5,7-tetraazabenzo[cd]azulen-7-yl)prop-2-en-1-one], the AC50 [1, 4] was 0.005 to 0.015 µM, the AC50 [2] was 0.001 to 0.1 µM and the AC50 [3] was over 3 µM.

In the case of `C=CC(=O)N1CCc2nc(-c3ccc(C4CCC4)cc3)n3c2C(C1)N(C(=O)c1ccc(Br)c2[nH]c(C(F)F)nc12)CC3` (stereo not drawn) [Compound 237, 1-(5-(7-bromo-2-(difluoromethyl)-1H-benzo[d]imidazole-4-carbonyl)-2-(4-cyclobutylphenyl)-4,5,5a,6,8,9-hexahydro-1,2a,5,7-tetraazabenzo[cd]azulen-7(3H)-yl)prop-2-en-1-one], the AC50 [1, 4] was 0.0015 to 0.005 µM, the AC50 [2] was 0.001 to 0.1 µM and the AC50 [3] was over 3 µM.

`C=CC(=O)N1CCc2nn(-c3cc(F)c(C4CC4)cc3O)c3c2C(C1)N(C(=O)c1cnc(C(C)(F)F)c(F)c1N)CC3` (stereo not drawn) [Compound 253, 1-[7-[4-amino-6-(1,1-difluoroethyl)-5-fluoro-pyridine-3-carbonyl]-3-(4-cyclopropyl-5-fluoro-2-hydroxy-phenyl)-2,3,7,10-tetrazatricyclo[6.4.1.04,1 3]trideca-1,4(13)-dien-10-yl]prop-2-en-1-one] gave an AC50 [1, 4] of 0.005 to 0.015 µM, an AC50 [2] of 0.001 to 0.1 µM and an AC50 [3] of over 3 µM.

Compound `C=CC(=O)N1CCc2nn(-c3cc(F)c(C4CC4)cc3O)c3c2C(C1)N(C(=O)c1cnc(OC(F)(F)F)c(F)c1N)CC3` (stereo not drawn) [Compound 254, 1-(5-(4-amino-5-fluoro-6-(trifluoromethoxy)nicotinoyl)-2-(4-cyclopropyl-5-fluoro-2-hydroxyphenyl)-2,3,4,5,5a,6,8,9-octahydro-7H-1,2,5,7-tetraazabenzo[cd]azulen-7-yl)prop-2-en-1-one] has an AC50 ([1]; ATPase ADPGlo AC50 (uM)- Assay Format B) of 0.015 to 0.055 µM, an AC50 [2] of 0.001 to 0.1 µM and an AC50 [3] of over 3 µM.

`C=CC(=O)N1CCc2nn(-c3ccc(C4CC4)cc3O)c3c2C(C1)N(C(=O)c1ccc(C(F)(F)F)c(F)c1N)CC3` (stereo not drawn) [Compound 259, 1-(5-(2-amino-3-fluoro-4-(trifluoromethyl)benzoyl)-2-(4-cyclopropyl-2-hydroxyphenyl)-2,3,4,5,5a,6,8,9-octahydro-7H-1,2,5,7-tetraazabenzo[cd]azulen-7-yl)prop-2-en-1-one] showed an AC50 [1, 4] of 0.015 to 0.055 µM, an AC50 [2] of 0.001 to 0.1 µM and an AC50 [3] of over 3 µM.

Source: patent publication US20250346600A1, “TRICYCLIC DERIVATIVES AND RELATED USES” (MOMA Therapeutics, Inc., priority 2023, published 2025)
